Experimental data reported in US11414379B2, “SPAK kinase inhibitors as neuroprotective agents” (United States Government as represented by the Department …, priority 2018, dated 2022).
Where two headings read alike, the source gives them in different places.

Columns and labels:
[1] = system: Ang II-mediated hypertensive mice, pdMCAO; assay: Neurological function tests in HTN mice after pdMCAO; assay type: in vivo, mouse; conditions: male HTN mice; 1-14 days post-pdMCAO
Procedure: Foot fault, cylinder test, and adhesive tape removal tests were used to assess pdMCAO-induced somatosensory and motor deficits in HTN mice in a blinded manner as described previously (Bhuiyan et al. (2017)J Cereb Blood Flow Metab. 37:2780-2794; Begum et al. (2018) Glia. 66).
Cylinder test: Mice are placed in a transparent cylinder (9 cm in diameter and 15 cm in height) for 10 min and all the forelimb movements of the mice will be recorded. Forepaw (left/right/both) usage on initial contact against the cylinder wall after rearing and during lateral exploration will be recorded. Prior to ischemic stroke, animals were placed in the cylinder for 5 min to establish a baseline symmetry profile.
Foot fault test: Each mouse will be placed on a stainless-steel grid floor (20 cm×40 cm with a mesh size of 4 cm^2) elevated 1 m above the floor. […] Data will be expressed as the number of foot fault errors made by the forelimbs contralateral to the injury hemisphere as a percentage of total steps.
Adhesive contact and removal tests: A piece of adhesive tape (4 mm×3 mm) will be attached to the contralateral forepaw with equal pressure by the experimenter in each trial. The time to make first contact with the tape and the time to remove the tape will be recorded as the contact time and the removal time, respectively. […]

[2] = design: species or system ICR mice; conditions: ICR, mouse, in vivo
Procedure: Referring to Table 3, ZT-1a pharmacokinetics were determined following a single 5 mg/kg intravenous (IV) dose and a single 10 mg/kg oral (PO) dose in ICR mice (N=3 at each time point). Blood samples were collected at 0.08, 0.25, 0.5, 1, 2, 4, 8, 10 & 24 hr (IV) & 0.25, 0.5, 1, 2, 4, 8, 10 & 24 hr (PO) post dose. Samples were subjected to drug assay by LC-MS/MS, and data were analyzed by WinNonlin V6.3. Tmax=time of maximum plasma concentration, Cmax=maximum plasma concentration, AUC=area under the curve (measure of exposure), T1/2=half life, CL=plasma clearance, Vz=volume of distribution, MRT, mean residence time; F=oral bioavailability.

SPAK-WNK1 interaction = target: T1, SPAK-WNK1 interaction (Homo sapiens, UniProt Q9UEW8); assay: Co-immunoprecipitation of WNK1 with SPAK from HEK293 cell lysates; assay type: binding; conditions: 30 min on ice
T1 construct: Non-transfected HEK293 cell lysates; endogenous in cells; host or cells: HEK293 (non-transfected) lysate
Description: Referring to FIG. 6, evidence that SPAK associates with WNK1, and interaction is disrupted by SPAK CCT mutation is shown. […] Immunoprecipitates were subjected to immunoblot probed with antibody to total WNK1 and antibody to total SPAK.

[3] = system: KCCs sites-1/2 (KCC2 Thr906/1007 or KCC3 Thr991/1048) phosphorylation; assay: Phosphorylation immunoblot in HEK293 cells; assay type: cell-based, human; conditions: only at this concentration
Procedure: HEK293 (human embryonic kidney 293) cells were cultured on 10-cm-diameter dishes in DMEM supplemented with 10% (v/v) foetal bovine serum, 2 mM L-glutamine, 100 U/ml penicillin and 0.1 mg/ml streptomycin. HEK293 cells were transfected with a mixture of 20 μl of 1 mg/ml polyethylenimine (Polysciences) and 5-10 μg of plasmid DNA as described previously (Durocher et al., 2002). 36 hours post-transfection cells were stimulated with either control isotonic or hypotonic medium for a period of 30 minutes. Cells were lysed in 0.3 mL of ice-cold lysis buffer/dish, lysates were clarified by centrifugation at 4° C. for 15 minutes at 26,000 g and the supernatant aliquots were frozen in liquid nitrogen and stored at −20° C. Protein concentrations were determined using the Bradford method. Cells were treated with the indicated concentrations of the SPAK/OSR1 inhibitors. […]
The membranes were incubated for 30 min with TBST (Tris-buffered saline, 0.05% Tween-20) containing 5% (w/v) skim milk. […] After repeating the washing steps, signals were detected with enhanced chemiluminescence reagent. […] The densities of bands were measured with ImageJ. […]
HEK293 cells were transfected with a DNA construct encoding wild type N-terminally FLAG-tagged KCC2. […] See FIG. 3 for Western blot quantitation. […]

Question: For `Cc1cc(C(C#N)c2ccc(Cl)cc2)c(Cl)cc1NC(=O)c1cc(Cl)ccc1O` (stereo not drawn) [ZT-1a, 5-chloro-N-(5-chloro-4-((4-chlorophenyl)(cyano)methyl)-2-methylphenyl)-2-hydroxy-benzamide], which “foot fault, cylinder and adhesive tape removal tests” value [1] is on record?
Answer: The value was “less foot faults, less unilateral turns and better performance in adhesive tape removal”.

Question: And the AUC [2]?
Answer: Its AUC is 2340 ng·h/mL.

Question: What about the C0 ([2]; iv, 5 mg/kg) of the same compound?
Answer: Its C0 is 14900 ng/mL.

Question: And the Cl ([2]; iv, 5 mg/kg)?
Answer: Its Cl is 35.5 mL/min/kg.

Question: What about the “MRT(0-∞)” value ([2]; iv, 5 mg/kg) of the same compound?
Answer: The value was 0.45 h.

Question: What about the Vz ([2]; iv, 5 mg/kg) of the same compound?
Answer: The Vz was 0.948 L/kg.

Question: What about the “MRT(0-∞)” value ([2]; po, 10 mg/kg) of the same compound?
Answer: The value was 3.3 h.

Question: What about the “co-immunoprecipitation of WNK1 with SPAK” value (SPAK-WNK1 interaction) of the same compound?
Answer: The value was “potently abolished”.

Question: With `Cc1cc(C(C#N)c2ccc(Cl)cc2)c(Cl)cc1NC(=O)c1cc(I)cc(I)c1O` (stereo not drawn) [Closantel] as the compound, how does the “concentration at which phosphorylation of KCCs site-1 was significantly inhibited” value [3] read?
Answer: The value was 10 µM.
